Experimental findings from patent US20260250316A1, “CRYSTALLINE FORMS OF A MACROCYCLIC PEPTIDE ANTIBIOTIC” (Hoffmann-La Roche Inc., priority 2022, published 2026) are described below.

One data set can be described thus: physchem. The following applies: water, approximately 1 g equilibrated in 8.5 mL of water at 20° C. for 2 days, centrifuged, uPLC.

Experimental for physchem: Approximately 1 g of substance was equilibrated in 8.5 mL of water at 20° C. for 2 days. 1 mL of suspension was centrifuged. The filtrate was analyzed by uPLC.

The term Solubility denotes the concentration that dissolves in the medium under given conditions. `CN1C(=O)[C@H](CCCCN)NC(=O)[C@H](CCCN)NCc2cccnc2Sc2cccc(-c3ccc(C(=O)O)cc3)c2CNC(=O)[C@@H]1Cc1c[nH]c2ccccc12.Cl` [Amorphous HCl salt, 4-[(11S,14S,17S)-14-(4-Aminobutyl)-11-(3-aminopropyl)-17-(1H-indol-3-ylmethyl)-16-methyl-12,15,18-trioxo-2-thia-4,10,13,16,19-pentazatricyclo[19.4.0.03,8]pentacosa-1(25),3(8),4,6,21,23-hexaen-22-yl]benzoic acid, mono hydrochloric acid salt] displayed a Solubility (approximately 1 g equilibrated in 8.5 mL of water at 20° C. for 2 days, centrifuged, uPLC) of 177.6 mg/mL. As usually defined, the solubility is how much of the substance goes into solution per volume. On to `CN1C(=O)[C@H](CCCCN)NC(=O)[C@H](CCCN)NCc2cccnc2Sc2cccc(-c3ccc(C(=O)O)cc3)c2CNC(=O)[C@@H]1Cc1c[nH]c2ccccc12.Cl` [Form A family HCl salt], for which, in “physchem”, the solubility at 2 days came to 124 mg/mL. On the same count and under the same terms, with `CN1C(=O)[C@H](CCCCN)NC(=O)[C@H](CCCN)NCc2cccnc2Sc2cccc(-c3ccc(C(=O)O)cc3)c2CNC(=O)[C@@H]1Cc1c[nH]c2ccccc12` [Form A family free zwitterion] the figure was under 1 mg/mL.

As to `CN1C(=O)[C@H](CCCCN)NC(=O)[C@H](CCCN)NCc2cccnc2Sc2cccc(-c3ccc(C(=O)O)cc3)c2CNC(=O)[C@@H]1Cc1c[nH]c2ccccc12.Cl` [HCl salt, 4-[(11S,14S,17S)-14-(4-Aminobutyl)-11-(3-aminopropyl)-17-(1H-indol-3-ylmethyl)-16-methyl-12,15,18-trioxo-2-thia-4,10,13,16,19-pentazatricyclo[19.4.0.03,8]pentacosa-1(25),3(8),4,6,21,23-hexaen-22-yl]benzoic acid], where the note is “especially in aqueous media”, the “Solubility compared to the free base (in words)” value is given as “dramatically increased solubility compared to the free base”. In the case of `CN1C(=O)[C@H](CCCCN)NC(=O)[C@H](CCCN)NCc2cccnc2Sc2cccc(-c3ccc(C(=O)O)cc3)c2CNC(=O)[C@@H]1Cc1c[nH]c2ccccc12` [free base, 4-[(11S,14S,17S)-14-(4-Aminobutyl)-11-(3-aminopropyl)-17-(1H-indol-3-ylmethyl)-16-methyl-12,15,18-trioxo-2-thia-4,10,13,16,19-pentazatricyclo[19.4.0.03,8]pentacosa-1(25),3(8),4,6,21,23-hexaen-22-yl]benzoic acid], the “Solubility in water (in words)” value (water) is “hardly soluble in water”.
